Data set [1] has as its target Intercellular adhesion molecule (ICAM-1), Integrin alpha-L/beta-2 (Homo sapiens, UniProt P05107+P05362+P20701). Nature of the data set: Inhibition of LFA1/ICAM1 interaction in human Hut-78 cells by cell migration assay. It is filed as cell-based.
Data set [2] is described as follows: AUC in Sprague-Dawley rat at 5 mg/kg, iv. More on the design: dose 5 mg/kg, route intravenous. The following applies: plasma. It is filed as ADME, organism-based.
The nature of data set [3]: Half life in Sprague-Dawley rat at 5 mg/kg, iv. Type of data set: ADME, organism-based. On the set-up: dose 5 mg/kg, route intravenous. The following applies: in vivo.
Data set [4] is described as follows: Clearance in Sprague-Dawley rat at 5 mg/kg, iv. The settings on record: in vivo. More on the design: dose 5 mg/kg, route intravenous. Type of data set: ADME, organism-based.
The subject of data set [5] is Mus musculus. As to the kind of experiment: Reduction of neutrophil migration in po dosed thioglycollate-induced C57BL/6 mouse peritonitis model administered 15 mins before thioglycollate challenge measured after 4 hrs. It is filed as functional.
A short description of data set [6]: AUClast in C57BL/6 mouse at 20 mg/kg, po. Type of data set: ADME, organism-based. On the set-up: time 0 - last, dose 20 mg/kg, route oral. The following applies: plasma.
Data set [7] can be described thus: Apparent permeability of the compound from apical to basolateral side in MDCK cells. It is filed as ADME, cell-based, Canis lupus familiaris. The settings on record: dog.
Data set [8] can be described thus: Tmax in C57BL/6 mouse at 100 mg/kg, po. It is filed as ADME, organism-based. More on the design: dose 100 mg/kg, route oral. The settings on record: in vivo.
Data set [9] in a line: Tmax in C57BL/6 mouse at 20 mg/kg, po. It is filed as ADME, organism-based. On the set-up: dose 20 mg/kg, route oral. The settings on record: in vivo.
A short description of data set [10]: Tmax in Sprague-Dawley rat at 20 mg/kg, po. Type of data set: ADME, organism-based. More on the design: dose 20 mg/kg, route oral. The following applies: in vivo.
A short description of data set [11]: Cmax in Sprague-Dawley rat at 20 mg/kg, po. More on the design: dose 20 mg/kg, route oral. The settings on record: in vivo. It is filed as ADME, organism-based.
Data set [12] is described as follows: Apparent permeability of the compound from basolateral to apical side in MDCK cells. The settings on record: dog. It is filed as ADME, cell-based, Canis lupus familiaris.
Data set [13] in a line: Oral bioavailability in C57BL/6 mouse at 20 mg/kg. The following applies: in vivo. It is filed as ADME, organism-based.
Data set [14] in a line: AUClast in Sprague-Dawley rat at 20 mg/kg, po. More on the design: time 0 - last, dose 20 mg/kg, route oral. It is filed as ADME, organism-based. The following applies: plasma.
Data set [15] can be described thus: Oral bioavailability in Sprague-Dawley rat at 20 mg/kg. It is filed as ADME, organism-based. The settings on record: in vivo.
Data set [16] can be described thus: Oral bioavailability in Sprague-Dawley rat at 100 mg/kg. It is filed as ADME, organism-based. The settings on record: in vivo.
Data set [17] can be described thus: AUClast in C57BL/6 mouse at 100 mg/kg, po. The settings on record: plasma. More on the design: time 0 - last, dose 100 mg/kg, route oral. It is filed as ADME, organism-based.
Data set [18] in a line: Cmax in C57BL/6 mouse at 100 mg/kg, po. It is filed as ADME, organism-based. More on the design: dose 100 mg/kg, route oral. The following applies: in vivo.
The nature of data set [19]: Cmax in C57BL/6 mouse at 20 mg/kg, po. Type of data set: ADME, organism-based. On the set-up: dose 20 mg/kg, route oral. The following applies: in vivo.
For data set [20], the system named is Mus musculus. Nature of the data set: Reduction of neutrophil migration in iv dosed thioglycollate-induced C57BL/6 mouse peritonitis model administered 15 mins before thioglycollate challenge measured after 4 hrs. It is filed as functional.

Chain of Intercellular adhesion molecule (ICAM-1), Integrin alpha-L/beta-2 (P20701 whole entry): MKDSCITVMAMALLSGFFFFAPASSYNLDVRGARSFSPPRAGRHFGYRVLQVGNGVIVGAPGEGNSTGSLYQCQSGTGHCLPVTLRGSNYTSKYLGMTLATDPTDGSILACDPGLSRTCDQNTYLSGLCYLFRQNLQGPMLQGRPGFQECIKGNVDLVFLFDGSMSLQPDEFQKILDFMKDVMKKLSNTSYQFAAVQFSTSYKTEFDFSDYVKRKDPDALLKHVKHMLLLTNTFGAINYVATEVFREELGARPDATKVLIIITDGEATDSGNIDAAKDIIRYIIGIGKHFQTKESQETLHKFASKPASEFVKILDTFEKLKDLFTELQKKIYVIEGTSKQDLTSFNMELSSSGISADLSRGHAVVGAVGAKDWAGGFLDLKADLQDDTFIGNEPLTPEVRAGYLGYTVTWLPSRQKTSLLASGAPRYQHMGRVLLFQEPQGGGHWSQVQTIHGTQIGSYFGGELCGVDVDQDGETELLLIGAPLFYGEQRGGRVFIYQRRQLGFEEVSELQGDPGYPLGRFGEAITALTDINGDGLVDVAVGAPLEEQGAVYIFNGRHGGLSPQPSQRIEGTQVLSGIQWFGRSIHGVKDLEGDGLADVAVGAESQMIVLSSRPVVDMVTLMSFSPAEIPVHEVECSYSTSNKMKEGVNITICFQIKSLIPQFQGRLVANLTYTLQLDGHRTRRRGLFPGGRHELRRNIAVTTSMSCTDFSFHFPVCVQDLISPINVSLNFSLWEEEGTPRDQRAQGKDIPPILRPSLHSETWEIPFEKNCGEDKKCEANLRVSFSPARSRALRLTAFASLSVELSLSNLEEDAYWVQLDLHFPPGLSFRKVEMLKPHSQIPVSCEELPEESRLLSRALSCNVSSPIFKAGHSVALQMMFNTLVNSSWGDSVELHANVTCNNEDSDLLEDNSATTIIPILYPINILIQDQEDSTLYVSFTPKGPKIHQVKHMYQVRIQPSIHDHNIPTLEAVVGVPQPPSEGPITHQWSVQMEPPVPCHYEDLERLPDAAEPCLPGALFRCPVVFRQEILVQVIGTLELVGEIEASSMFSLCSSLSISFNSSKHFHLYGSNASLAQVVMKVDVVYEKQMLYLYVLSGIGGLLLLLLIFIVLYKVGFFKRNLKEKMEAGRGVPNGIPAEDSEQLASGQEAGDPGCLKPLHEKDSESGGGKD
Chain of Intercellular adhesion molecule (ICAM-1), Integrin alpha-L/beta-2 (P05362 whole entry): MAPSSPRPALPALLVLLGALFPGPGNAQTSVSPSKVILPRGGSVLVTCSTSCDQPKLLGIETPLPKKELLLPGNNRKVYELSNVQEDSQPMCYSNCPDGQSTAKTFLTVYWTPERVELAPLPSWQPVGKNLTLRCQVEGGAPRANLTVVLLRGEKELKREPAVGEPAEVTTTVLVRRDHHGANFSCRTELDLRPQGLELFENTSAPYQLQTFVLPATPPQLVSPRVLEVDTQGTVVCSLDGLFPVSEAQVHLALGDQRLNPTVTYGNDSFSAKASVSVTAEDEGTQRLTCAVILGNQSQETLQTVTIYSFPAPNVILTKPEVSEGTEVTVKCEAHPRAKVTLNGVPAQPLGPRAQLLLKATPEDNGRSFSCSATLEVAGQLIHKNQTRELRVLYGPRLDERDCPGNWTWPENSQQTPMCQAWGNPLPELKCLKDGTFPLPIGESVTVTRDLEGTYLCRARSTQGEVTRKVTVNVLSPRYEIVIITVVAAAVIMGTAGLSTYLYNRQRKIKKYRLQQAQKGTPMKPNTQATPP
Chain of Intercellular adhesion molecule (ICAM-1), Integrin alpha-L/beta-2 (P05107 whole entry): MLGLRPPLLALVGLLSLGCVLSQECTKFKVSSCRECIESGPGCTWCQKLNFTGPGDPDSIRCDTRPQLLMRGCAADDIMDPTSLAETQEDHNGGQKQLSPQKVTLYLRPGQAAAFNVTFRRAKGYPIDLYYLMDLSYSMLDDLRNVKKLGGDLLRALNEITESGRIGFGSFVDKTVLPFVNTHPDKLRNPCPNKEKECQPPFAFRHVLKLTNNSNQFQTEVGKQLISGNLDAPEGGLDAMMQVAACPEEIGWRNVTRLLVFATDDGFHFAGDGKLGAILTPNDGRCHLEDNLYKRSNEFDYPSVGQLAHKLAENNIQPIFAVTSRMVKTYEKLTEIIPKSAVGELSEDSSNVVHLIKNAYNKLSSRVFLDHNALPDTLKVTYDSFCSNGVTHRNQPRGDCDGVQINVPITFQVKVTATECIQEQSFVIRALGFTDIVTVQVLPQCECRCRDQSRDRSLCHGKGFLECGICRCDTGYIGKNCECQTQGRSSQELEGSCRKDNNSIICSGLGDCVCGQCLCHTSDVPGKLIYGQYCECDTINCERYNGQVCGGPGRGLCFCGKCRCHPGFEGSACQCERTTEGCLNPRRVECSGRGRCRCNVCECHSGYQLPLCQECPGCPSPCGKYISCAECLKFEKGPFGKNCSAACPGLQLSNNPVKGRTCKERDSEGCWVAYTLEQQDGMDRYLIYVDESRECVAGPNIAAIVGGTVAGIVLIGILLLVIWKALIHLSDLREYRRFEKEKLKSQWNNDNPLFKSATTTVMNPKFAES

For orientation: IC50 means the point on the concentration scale where inhibition reaches its midpoint. High values mean a need for much substance, low ones inhibition by little substance. Regarding `NC[C@H](NC(=O)c1c(Cl)cc2c(c1Cl)CCN(C(=O)c1ccc(Cl)cc1)C2)C(=O)O`, the IC50 in [1] was more than 1000 nM.
In [1], `Cc1ccccc1C(=O)N1CCc2c(cc(Cl)c(C(=O)N[C@@H](CNC(=O)c3cccs3)C(=O)O)c2Cl)C1` came in with an IC50 of 460 nM.
The AUC is the area under the concentration-time curve, a measure of exposure. A higher AUC goes with more exposure. For orientation: half-life means how long it takes for the measured level to halve. One may read the clearance as the volume of plasma or blood freed of the substance per unit of time. Low readings indicate a low capacity for elimination, high ones a high capacity for elimination. `O=C(NC[C@H](NC(=O)c1c(Cl)cc2c(c1Cl)CCN(C(=O)c1ccc3c(c1)OCC3)C2)C(=O)O)c1cccs1` yielded an AUC in data set [2] of 4870 ng·h/mL. The IC50 in data set [1] was determined as 13 nM. In [3], the half-life was 1.1 h. The clearance in data set [4] was 19 mL/min/kg.
In data set [2], `O=C(NC[C@H](NC(=O)c1c(Cl)cc2c(c1Cl)CCN(C(=O)c1cc3ccccc3o1)C2)C(=O)O)c1cccs1` yielded an AUC of 1260 ng·h/mL. The same compound gave an IC50 in [1] of 5 nM. Moreover, the half-life in data set [3] was 1.5 h. The clearance in data set [4] was more than 60 mL/min/kg.
Regarding `O=C(NC[C@H](NC(=O)c1c(Cl)cc2c(c1Cl)CCN(C(=O)C1CCCCC1)C2)C(=O)O)c1cccs1`, the IC50 in data set [1] was more than 1000 nM.
In [1], `O=C(N[C@@H](CNC(=O)C1CCCCC1)C(=O)O)c1c(Cl)cc2c(c1Cl)CCN(C(=O)c1ccc(Cl)cc1)C2` had an IC50 of 540 nM.
`O=C(NC[C@H](NC(=O)c1c(Cl)cc2c(c1Cl)CCN(C(=O)c1ccccc1)C2)C(=O)O)c1cccs1` gave an IC50 in data set [1] of 79 nM.
In [1], `O=C(NC[C@H](NC(=O)c1c(Cl)cc2c(c1Cl)CCN(C(=O)/C=C/c1ccco1)C2)C(=O)O)c1cccs1` registered an IC50 of 25 nM.
Regarding `Cc1ccc(C(=O)N2CCc3c(cc(Cl)c(C(=O)N[C@@H](CNC(=O)c4cccs4)C(=O)O)c3Cl)C2)cc1`, the IC50 in data set [1] was determined as 10 nM.
As usually defined, the ED50 is the midpoint of the dose-response relation. A higher ED50 goes with weaker potency. As usually defined, the AUC(0-t) is the area under the concentration-time curve up to a stated or last time point. Read a low AUC(0-t) as less exposure. What is called Papp A→B is the apparent permeability from the apical to the basolateral side of a cell layer. One may read the Tmax as the time at which the peak concentration occurs. As a reminder, the Cmax is the maximum level reached in the sampled fluid or tissue. Broadly, the Papp B→A is how fast a substance crosses the layer from the basolateral side. By bioavailability is commonly meant the share of a dose that reaches the circulation, judged against a reference dose that is usually intravenous. Consider `CCOC(=O)[C@H](CNC(=O)c1cccs1)NC(=O)c1c(Cl)cc2c(c1Cl)CCN(C(=O)c1ccc3ccoc3c1)C2`, for which the Activity result in the data set on Mus musculus [5] is “Dose-dependent effect”. Besides, the 50% effect level in the data set with Mus musculus [5] (C57BL/6, po) (ED50) was put at a dose of 6.4 mg/kg. For the same compound, the AUC(0-t) in [6] came to 5540 ng·h/mL; in data set [14] it was 13900 ng·h/mL; in data set [17], 31900 ng·h/mL. Also, the Papp A→B in data set [7] came out at 8.5 ×10⁻⁶ cm/s. For the same compound, the Tmax is 1 h in data set [8], 0.8 h in data set [9] and 0.8 h in data set [10]. Also, the Cmax in [11] was 3400 ng/mL; in data set [18] it was 8460 ng/mL; in data set [19], 2120 ng/mL. For the same compound, in [12], the Papp B→A is 10 ×10⁻⁶ cm/s. For the same compound, the bioavailability in data set [13] was found to be 27%; in data set [15], 18%; in [16], 31%. Further, in data set [2], the AUC stood at 16800 ng·h/mL. For the same compound, the half-life in data set [3] is 2.8 h. The clearance in [4] was 5 mL/min/kg.
Turning to `O=C(NC[C@H](NC(=O)c1c(Cl)cc2c(c1Cl)CCN(C(=O)c1ccc3ccoc3c1)C2)C(=O)O)c1cccs1`, the Papp A→B in [7] stood at 0.34 ×10⁻⁶ cm/s. Further, the Papp B→A in [12] turned out to be 0.3 ×10⁻⁶ cm/s. The Activity entry in the data set on Mus musculus [20] was “Dose-dependent effect”. Also, it took a dose of 0.038 mg/kg to reach the 50% effect level in the data set on Mus musculus [20] (C57BL/6, iv) (ED50). The exposure (AUC) in data set [2] is 5500 ng·h/mL. Besides, the IC50 in [1] turned out to be 9 nM. In data set [3], the half-life was 3 h. The compound further showed a clearance in [4] of 3.2 mL/min/kg.
Compound `O=C(N[C@@H](Cc1c[nH]c2ccccc12)C(=O)O)c1c(Cl)cc2c(c1Cl)CCN(C(=O)c1ccc(Cl)cc1)C2` returned an IC50 in data set [1] of 810 nM.
Still for that read-out and setting: with `Cc1cccc(C(=O)N2CCc3c(cc(Cl)c(C(=O)N[C@@H](CNC(=O)c4cccs4)C(=O)O)c3Cl)C2)c1` the figure was 90 nM.
Compound `O=C(NC[C@H](NC(=O)c1c(Cl)cc2c(c1Cl)CCN(C(=O)c1cccc(Cl)c1)C2)C(=O)O)c1cccs1` came in with an AUC in data set [2] of 120 ng·h/mL. Moreover, the IC50 in [1] worked out at 66 nM. The compound also gave a half-life in data set [3] of 1.1 h. In [4], this compound displayed a clearance of more than 60 mL/min/kg.
Take `O=C(NC[C@H](NC(=O)c1c(Cl)cc2c(c1Cl)CCN(C(=O)c1ccc(Cl)cc1)C2)C(=O)O)c1cccs1`: the AUC in data set [2] was 580 ng·h/mL. In data set [1], this compound displayed an IC50 of 22 nM. Also, the half-life in data set [3] is 1.4 h. This compound had a clearance in data set [4] of 31 mL/min/kg.
`O=C(NC[C@H](NC(=O)c1c(Cl)cc2c(c1Cl)CCN(C(=O)c1ccc(Cl)cc1)C2)C(=O)O)c1ccccc1` registered an AUC in data set [2] of 487 ng·h/mL. In data set [1], the IC50 was 29 nM. In addition, the half-life in [3] is 0.7 h. In [4], this compound registered a clearance of more than 60 mL/min/kg.
`O=C(N[C@@H](Cc1cccc(O)c1)C(=O)O)c1c(Cl)cc2c(c1Cl)CCN(C(=O)c1ccc(Cl)cc1)C2` gave an IC50 in data set [1] of more than 1000 nM.
For the compound `O=C(NC[C@H](NC(=O)c1c(Cl)cc2c(c1Cl)CCN(C(=O)c1ccc(Cl)cc1)C2)C(=O)O)c1ccco1`, the midpoint of inhibition in [1], the IC50, lay at 51 nM.
As for `CC(=O)NC[C@H](NC(=O)c1c(Cl)cc2c(c1Cl)CCN(C(=O)c1ccc(Cl)cc1)C2)C(=O)O`, the IC50 in data set [1] was found to be 620 nM.
Compound `CC(=O)N1CCc2c(cc(Cl)c(C(=O)N[C@@H](CNC(=O)c3cccs3)C(=O)O)c2Cl)C1` returned an IC50 in data set [1] of more than 1000 nM.

The values above are taken from ChEMBL document CHEMBL1221241, “Discovery of tetrahydroisoquinoline (THIQ) derivatives as potent and orally bioavailable LFA-1/ICAM-1 antagonists” (Bioorg Med Chem Lett, 2010).
